From patent US12371428B2 (Exelixis, Inc., priority 2019, dated 2025)

Legend:
Assay type in all cases: cell-based
[1] = target: Met (phospho-Met, HGF-stimulated PC-3 prostate cancer cells) (Homo sapiens (Human), UniProt P08581); assay: Met autophosphorylation ELISA in PC-3 cells (Example F); details: cellular activity; Met autophosphorylation ELISA in PC-3 cells; read-out: c-Met IC50
Method in brief: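 IC50 values derive from a 4-parameter logistic fit of phospho-Met (panTyr) sandwich ELISA signals in PC-3 lysates, scaled between DMSO and reference-inhibitor wells. Cells, starved 3 h in serum-free medium, had 1 h compound exposure (8 doses, 0.3% DMSO) before 10 min stimulation with 100 ng/mL HGF.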

[2] = target: Mer (phospho-Mer, MERTK-transfected 293A cells) (Homo sapiens (Human), UniProt Q12866); assay: Mer autophosphorylation ELISA in transient transfected 293A cells (Example H); details: cellular activity; Mer autophosphorylation ELISA in transient transfected 293A cells
Chain of Mer (phospho-Mer, MERTK-transfected 293A cells) (Q12866 21-999): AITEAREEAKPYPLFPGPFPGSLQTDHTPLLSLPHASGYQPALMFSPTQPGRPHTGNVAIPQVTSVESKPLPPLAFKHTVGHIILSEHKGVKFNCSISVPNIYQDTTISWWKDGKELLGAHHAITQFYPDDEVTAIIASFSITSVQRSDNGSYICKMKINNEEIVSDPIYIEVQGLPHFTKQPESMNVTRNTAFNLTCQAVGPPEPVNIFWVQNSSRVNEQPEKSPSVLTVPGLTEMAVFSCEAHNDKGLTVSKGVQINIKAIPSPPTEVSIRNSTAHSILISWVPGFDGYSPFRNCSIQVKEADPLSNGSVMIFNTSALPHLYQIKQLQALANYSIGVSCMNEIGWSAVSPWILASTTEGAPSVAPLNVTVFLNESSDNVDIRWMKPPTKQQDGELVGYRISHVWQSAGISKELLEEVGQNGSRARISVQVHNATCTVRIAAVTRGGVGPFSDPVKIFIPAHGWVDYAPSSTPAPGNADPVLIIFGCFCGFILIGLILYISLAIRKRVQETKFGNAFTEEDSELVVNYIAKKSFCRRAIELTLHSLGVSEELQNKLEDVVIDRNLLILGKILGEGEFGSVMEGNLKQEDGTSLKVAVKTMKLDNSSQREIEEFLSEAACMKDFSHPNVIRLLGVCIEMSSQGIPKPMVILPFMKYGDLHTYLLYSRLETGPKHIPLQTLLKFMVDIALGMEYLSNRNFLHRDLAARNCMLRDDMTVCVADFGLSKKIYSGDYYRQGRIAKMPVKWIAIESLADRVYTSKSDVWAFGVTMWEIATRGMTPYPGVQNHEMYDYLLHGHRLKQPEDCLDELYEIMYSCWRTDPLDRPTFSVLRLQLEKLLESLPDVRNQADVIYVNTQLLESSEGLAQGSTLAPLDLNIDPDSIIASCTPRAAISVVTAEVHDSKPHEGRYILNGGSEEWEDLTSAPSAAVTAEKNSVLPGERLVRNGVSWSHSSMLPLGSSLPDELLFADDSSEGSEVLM
Method in brief: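 Inhibition of cellular Mer autophosphorylation is determined in 293A cells transiently expressing human MERTK after 1 h compound exposure (8 concentrations, serum-free, 0.3% DMSO). Phospho-Mer in clarified lysates is measured by ELISA, with DMSO and reference-inhibitor wells defining the 100% and 0% activity limits.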

[3] = target: AXL (phospho-AXL, Gas6-stimulated A-172 glioblastoma cells) (Homo sapiens (Human), UniProt P30530); assay: AXL autophosphorylation ELISA in A-172 cells (Example E); details: cellular activity; AXL autophosphorylation ELISA in A-172 cells; read-out: Axl IC50
Chain of AXL (phospho-AXL, Gas6-stimulated A-172 glioblastoma cells) (P30530 26-894): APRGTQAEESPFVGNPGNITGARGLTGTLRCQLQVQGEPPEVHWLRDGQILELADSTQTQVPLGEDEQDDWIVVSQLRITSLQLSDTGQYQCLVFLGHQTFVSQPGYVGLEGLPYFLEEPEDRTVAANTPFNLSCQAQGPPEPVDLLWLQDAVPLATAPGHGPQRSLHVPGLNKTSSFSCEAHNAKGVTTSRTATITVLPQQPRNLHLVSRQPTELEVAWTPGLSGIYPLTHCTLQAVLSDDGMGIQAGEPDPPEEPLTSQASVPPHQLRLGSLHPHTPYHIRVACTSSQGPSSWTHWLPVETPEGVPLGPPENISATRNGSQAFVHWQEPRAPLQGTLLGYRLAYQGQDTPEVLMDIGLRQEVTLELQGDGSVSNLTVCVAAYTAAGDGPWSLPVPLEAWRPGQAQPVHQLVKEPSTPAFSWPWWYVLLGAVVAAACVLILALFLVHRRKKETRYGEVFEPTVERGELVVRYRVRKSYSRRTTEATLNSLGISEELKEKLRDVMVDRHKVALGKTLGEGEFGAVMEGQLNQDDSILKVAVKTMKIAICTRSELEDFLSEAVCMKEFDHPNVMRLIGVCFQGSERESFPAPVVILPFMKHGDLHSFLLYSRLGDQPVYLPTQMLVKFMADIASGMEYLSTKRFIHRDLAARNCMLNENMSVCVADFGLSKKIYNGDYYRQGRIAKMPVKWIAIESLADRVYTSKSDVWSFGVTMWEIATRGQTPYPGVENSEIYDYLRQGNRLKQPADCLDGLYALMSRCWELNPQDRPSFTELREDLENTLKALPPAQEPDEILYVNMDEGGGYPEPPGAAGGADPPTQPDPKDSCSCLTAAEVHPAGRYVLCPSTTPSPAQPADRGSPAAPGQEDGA
Protocol: A-172 cells were incubated at 37° C., 5% CO2 for 24 h and then starved for 24 h in serum-free medium. Test compounds were serially diluted to produce an 8-point dose curve in fresh serum-free medium to a final concentration of 0.3% DMSO (vehicle) and added to the cells and incubated for 1 h. […] Lysates were collected and 100 μL/well added into the human phospho-AXL DuoSet IC ELISA (R&D Systems #DYC2228-2). […] Positive control wells (100% activity) contained Gas6-stimulated, DMSO-treated cell lysates. Negative control wells (0% activity) contained Gas6-stimulated, reference inhibitor-treated cell lysates. IC50 values were calculated by nonlinear regression analysis using a 4-parameter logistic curve fit in ActivityBase XE (IDBS).

Chain of Met (phospho-Met, HGF-stimulated PC-3 prostate cancer cells) (P08581 25-1390): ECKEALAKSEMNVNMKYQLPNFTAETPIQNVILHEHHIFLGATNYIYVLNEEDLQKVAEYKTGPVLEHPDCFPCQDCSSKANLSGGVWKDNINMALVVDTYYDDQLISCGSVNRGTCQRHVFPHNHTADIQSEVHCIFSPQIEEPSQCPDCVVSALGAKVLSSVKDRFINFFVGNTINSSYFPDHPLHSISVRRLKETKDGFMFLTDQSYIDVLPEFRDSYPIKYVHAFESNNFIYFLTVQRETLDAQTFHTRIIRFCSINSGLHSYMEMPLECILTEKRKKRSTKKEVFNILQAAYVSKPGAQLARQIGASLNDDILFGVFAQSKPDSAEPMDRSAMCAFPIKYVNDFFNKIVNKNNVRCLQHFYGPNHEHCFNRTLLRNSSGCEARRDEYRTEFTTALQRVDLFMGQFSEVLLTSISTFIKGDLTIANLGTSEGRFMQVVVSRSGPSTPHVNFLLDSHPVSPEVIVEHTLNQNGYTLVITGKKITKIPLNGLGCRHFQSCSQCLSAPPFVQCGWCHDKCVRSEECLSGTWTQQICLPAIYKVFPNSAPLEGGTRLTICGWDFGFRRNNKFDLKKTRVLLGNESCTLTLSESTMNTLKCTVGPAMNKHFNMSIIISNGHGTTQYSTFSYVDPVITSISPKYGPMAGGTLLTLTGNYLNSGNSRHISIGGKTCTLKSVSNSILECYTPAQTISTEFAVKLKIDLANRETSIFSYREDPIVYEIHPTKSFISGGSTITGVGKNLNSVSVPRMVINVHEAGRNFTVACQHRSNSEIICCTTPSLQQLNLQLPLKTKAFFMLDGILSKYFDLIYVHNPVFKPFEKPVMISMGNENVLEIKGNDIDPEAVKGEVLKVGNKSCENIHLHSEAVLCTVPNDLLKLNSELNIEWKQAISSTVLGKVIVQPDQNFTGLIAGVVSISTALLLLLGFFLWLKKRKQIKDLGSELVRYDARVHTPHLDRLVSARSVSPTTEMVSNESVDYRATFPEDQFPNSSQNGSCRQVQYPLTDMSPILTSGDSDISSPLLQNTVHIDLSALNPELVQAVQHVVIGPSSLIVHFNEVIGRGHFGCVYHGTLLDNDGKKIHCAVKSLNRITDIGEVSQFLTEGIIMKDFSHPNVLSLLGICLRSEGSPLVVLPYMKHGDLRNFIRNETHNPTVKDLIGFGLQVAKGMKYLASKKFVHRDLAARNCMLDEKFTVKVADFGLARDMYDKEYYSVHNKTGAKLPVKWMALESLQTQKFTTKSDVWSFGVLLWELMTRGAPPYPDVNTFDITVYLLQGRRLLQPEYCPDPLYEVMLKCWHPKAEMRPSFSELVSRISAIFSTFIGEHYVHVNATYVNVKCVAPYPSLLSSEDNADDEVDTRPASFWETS

| SMILES | IC50 [1] [nM] | IC50 [2] [nM] | IC50 [3] [nM] |
| --- | --- | --- | --- |
| CCOCc1nc(C)c(-c2ccc(F)cc2)c(O)c1C(=O)Nc1ccc(Oc2ccnc3cc(OC)cnc23)c(F)c1 [Compound 214, 2-(Ethoxymethyl)-N-[3-fluoro-4-[(7-methoxy-1,5-naphthyridin-4-yl)oxy]phenyl]-5-(4-fluorophenyl)-4-hydroxy-6-methylpyridine-3-carboxamide] | < 100 | < 100 | < 100 |
| COCc1c(C(=O)Nc2ccc(Oc3ccnc4cc(OC)c(OC)nc34)c(F)c2)c(=O)c(-c2ccc(F)cc2)c(C)n1C [Compound 336, N-[4-[(6,7-dimethoxy-1,5-naphthyridin-4-yl)oxy]-3-fluorophenyl]-5-(4-fluorophenyl)-2-(methoxymethyl)-1,6-dimethyl-4-oxopyridine-3-carboxamide] | < 100 | < 100 | < 100 |
| COc1cc2nccc(Oc3ccc(NC(=O)c4cc(F)c(C)n(-c5ccc(F)cc5)c4=O)cc3F)c2nc1OC [Compound 337, N-[4-[(6,7-dimethoxy-1,5-naphthyridin-4-yl)oxy]-3-fluorophenyl]-5-fluoro-1-(4-fluorophenyl)-6-methyl-2-oxopyridine-3-carboxamide] | < 100 | < 100 | < 100 |
| COc1cc2nccc(Oc3ccc(NC(=O)c4cc(F)c(C)n(-c5ccc(F)cc5)c4=O)cc3)c2nc1OC [Compound 338, N-[4-[(6,7-dimethoxy-1,5-naphthyridin-4-yl)oxy]phenyl]-5-fluoro-1-(4-fluorophenyl)-6-methyl-2-oxopyridine-3-carboxamide] | < 100 | < 100 | < 100 |
| CNC(=O)c1cc2c(Oc3ccc(NC(=O)c4cnc(C)c(-c5ccc(F)cc5)c4O)cc3)ccnc2cn1 [Compound 398, 4-[4-[[5-(4-fluorophenyl)-4-hydroxy-6-methylpyridine-3-carbonyl]amino]phenoxy]-N-methyl-1,7-naphthyridine-6-carboxamide] | < 100 | < 100 | < 100 |
| COCc1nc(C)cc(O)c1C(=O)Nc1ccc(Oc2ccnc3cc(OC)c(OC)nc23)c(F)c1 [Compound 492, N-[4-[(6,7-dimethoxy-1,5-naphthyridin-4-yl)oxy]-3-fluorophenyl]-4-hydroxy-2-(methoxymethyl)-6-methylpyridine-3-carboxamide] | < 100 | < 100 | 100 to 300 |
| COc1ccc2nccc(Oc3ccc(NC(=O)c4c(C)ncc(-c5ccc(F)cc5C)c4O)cc3)c2n1 [Compound 493, 5-(4-fluoro-2-methylphenyl)-4-hydroxy-N-[4-[(6-methoxy-1,5-naphthyridin-4-yl)oxy]phenyl]-2-methylpyridine-3-carboxamide] | < 100 | < 100 | < 100 |
| Cc1cc(C)n(-c2ccc(F)cc2)c(=O)c1C(=O)Nc1ccc(Oc2ccnc3cc(C(C)CO)cnc23)c(F)c1 (stereo not drawn) [Compound 599, N-[3-Fluoro-4-[[7-(1-hydroxypropan-2-yl)-1,5-naphthyridin-4-yl]oxy]phenyl]-1-(4-fluorophenyl)-4,6-dimethyl-2-oxopyridine-3-carboxamide] | < 100 | < 100 | < 100 |
| COc1cc2nccc(Oc3ccc(NC(=O)c4nnc(C)c(-c5ccc(F)cc5)c4SC)cc3F)c2nc1OC [Compound 602, N-[4-[(6,7-Dimethoxy-1,5-naphthyridin-4-yl)oxy]-3-fluorophenyl]-5-(4-fluorophenyl)-6-methyl-4-methylsulfanylpyridazine-3-carboxamide] | 100 to 300 | < 100 | 100 to 300 |
| COc1cc2nccc(Oc3ccc(NC(=O)c4cn(CCF)c(C)c(-c5ccc(F)cc5)c4=O)cc3F)c2nc1OC [Compound 622, N-[4-[(6,7-Dimethoxy-1,5-naphthyridin-4-yl)oxy]-3-fluorophenyl]-1-(2-fluoroethyl)-5-(4-fluorophenyl)-6-methyl-4-oxopyridine-3-carboxamide] | < 100 | < 100 | < 100 |
